Source: ChEMBL document CHEMBL2412982, “A medicinal chemists' guide to the unique difficulties of lead optimization for tuberculosis” (2013)

How the values were obtained:
[1] = fAUC/MIC in Mycobacterium tuberculosis infected mouse; type: functional
[2] = Cmax/MIC in Mycobacterium tuberculosis infected mouse; type: functional
[3] = AUC/MIC in Mycobacterium tuberculosis infected mouse; type: functional, Plasma
[4] = fCmax/MIC in Mycobacterium tuberculosis infected mouse; type: functional
[5] = fT>MIC in Mycobacterium tuberculosis infected mouse; type: functional
[6] = T>MIC in Mycobacterium tuberculosis infected mouse; type: functional

Structure (SMILES) | fAUC/MIC [1] | Ratio [2] | RatioAUC/MIC [3] | fCmax/MIC [4] | fT>MIC [5] [%] | %T>MIC [6] [%]
COc1nc2ccc(Br)cc2cc1[C@@H](c1ccccc1)[C@@](O)(CCN(C)C)c1cccc2ccccc12 [BEDAQUILINE] | 1 | 10 | 100 | 0.1 | 0 | 80
CC(C)/N=c1\cc2n(-c3ccc(Cl)cc3)c3ccccc3nc-2cc1Nc1ccc(Cl)cc1 [CLOFAZIMINE] | <1 | 1 | 20 | 0.02 | 0 | 0
OC(c1cc(C(F)(F)F)nc2c(C(F)(F)F)cccc12)C1CCCCN1 (centres undefined) [MEFLOQUINE] | 1.6 | 0.5 | 8 | 0.1 | 0 | 0
NNC(=O)c1ccncc1 [ISONIAZID] | 800 | 660 | 1300 | 400 | 60 | 80
CO[C@H]1/C=C/O[C@@]2(C)Oc3c(C)c(O)c4c(O)c(c(/C=N/N5CCN(C)CC5)c(O)c4c3C2=O)NC(=O)/C(C)=C\C=C\[C@H](C)[C@H](O)[C@@H](C)[C@@H](O)[C@@H](C)[C@H](OC(C)=O)[C@@H]1C [RIFAMPIN] | 300 | 100 | 1500 | 20 | 100 | 100
O=[N+]([O-])c1cn2c(n1)OC[C@@H](OCc1ccc(OC(F)(F)F)cc1)C2 [PRETOMANID] | 16 | 20 | 166 | 2 | 21 | 58
COc1c(N2C[C@@H]3CCCN[C@@H]3C2)c(F)cc2c(=O)c(C(=O)O)cn(C3CC3)c12 [MOXIFLOXACIN] | 53 | 17 | 88 | 10 | 80 | 100
CC[C@@H](CO)NCCN[C@@H](CC)CO [ETHAMBUTOL] | 25 | 11 | 33 | 8 | 25 | 35
NC(=O)c1cnccn1 [PYRAZINAMIDE] | 21 | 25 | 35 | 15 | 19 | 25
